Assay: DPPH radical scavenging antioxidant test
Assay type: biochemical
Conditions: 517 nm; for Inhibition (radical scavenging inhibition): 0.2 mL DPPH (0.75 mM), compound 3 μM in ethanol, 30 minutes in the dark
Protocol: The antioxidant properties of the 8-((4-hydroxyphenyl)diazenyl)naphthalene-1,3-disulfonic acid compound were studied by adding 0.2 mL DPPH (0.75 mM)) to 8-((4-hydroxyphenyl)diazenyl)naphthalene-1,3-disulfonic acid (III) (3 μM) in ethanol. After 30 minutes of incubation in the dark, the absorbance was read against a blank at 517 nm. Ascorbic acid (vitamin C) was used as standard antioxidants (positive control). A blank sample was prepared by 0.2 ml of DPPH in 3 mL ethanol. A negative control sample was run using ethanol instead of the sample. The radical scavenging inhibition was calculated using the following equation: […]
The antioxidant activity for the synthesized compound is listed in Table 1, using Vitamin C as a reference.

SMILES | Inhibition (radical scavenging inhibition) [%] | antioxidant potential in DPPH test compared to vitamin C (in words) (DPPH in vitro test, vitamin C as positive control)
O=S(=O)(O)c1cc(S(=O)(=O)O)c2c(/N=N/c3ccc(O)cc3)cccc2c1 [Product III, 8-((4-hydroxyphenyl)diazenyl)naphthalene-1,3-disulfonic acid] | 52 | high potential as an antioxidant compared to vitamin C
O=C1O[C@H]([C@@H](O)CO)C(O)=C1O [vit c, Ascorbic acid, reference compound] | 74 | –
